Key:
[1] = biological target: mouse TAAR1 (Mus musculus (Mouse), UniProt Q923Y8); assay: Radioligand binding assay on mouse TAAR1; settings: mouse TAAR1 (first value of the cell); membranes of HEK-293 cells stably expressing mouse TAAR1; read-out: Ki (μM) mouse/rat
Description: (§1) Construction of TAAR Expression Plasmids and Stably Transfected Cell Lines
(§2) For the construction of expression plasmids the coding sequences of human, rat and mouse TAAR 1 were amplified from genomic DNA essentially as described by Lindemann et al.. The Expand High Fidelity PCR System (Roche Diagnostics) was used with 1.5 mM Mg^2+ and purified PCR products were cloned into pCR2.1-TOPO cloning vector (Invitrogen) following the instructions of the manufacturer. PCR products were subcloned into the pIRESneo2 vector (BD Clontech, Palo Alto, Calif.), and expression vectors were sequence verified before introduction in cell lines.
(§3) HEK293 cells (ATCC # CRL-1573) were cultured essentially as described by Lindemann et al. (2005). For the generation of stably transfected cell lines HEK293 cells were transfected with the pIRESneo2 expression plasmids containing the TAAR coding sequences (described above) with Lipofectamine 2000 (Invitrogen) according to the instructions of the manufacturer, and 24 hrs post transfection the culture medium was supplemented with 1 mg/ml G418 (Sigma, Buchs, Switzerland). After a culture period of about 10 d clones were isolated, expanded and tested for responsiveness to trace amines (all compounds purchased from Sigma) with the cAMP Biotrak Enzyme immunoassay (EIA) System (Amersham) following the non-acetylation EIA procedure provided by the manufacturer.
Radioligand Binding Assay on Mouse TAAR1
(§4) Membrane Preparation and Radioligand Binding.
HEK-293 cells stably expressing mouse TAAR1 were maintained at 37° C. and 5% CO2 in DMEM high glucose medium, containing fetal calf serum (10%, heat inactivated for 30 min at 56° C.), penicillin/streptomycin (1%), and 375 μg/ml geneticin (Gibco). Cells were released from culture flasks using trypsin/EDTA, harvested, washed twice with ice-cold PBS (without Ca^2+and Mg^2+), pelleted at 1,000 rpm for 5 min at 4° C., frozen and stored at −80° C. Frozen pellets were suspended in 20 ml HEPES-NaOH (20 mM, pH 7.4) containing 10 mM EDTA and homogenized with a Polytron (PT 6000, Kinematica) at 14,000 rpm for 20 s. The homogenate was centrifuged at 48,000×g for 30 min at 4° C. Subsequently, the supernatant was removed and discarded, and the pellet resuspended in 20 ml HEPES-NaOH (20 mM, pH 7.4) containing 0.1 mM EDTA using the Polytron (20 s at 14,000 rpm). This procedure was repeated and the final pellet resuspended in HEPES-NaOH containing 0.1 mM EDTA and homogenized using the Polytron. Typically, aliquots of 2 ml membrane portions were stored at −80° C. With each new membrane batch the dissociation constant (Kd) was determined via a saturation curve. The TAAR1 radioligand ^3[H]-(S)-4-[(ethyl-phenyl-amino)-methyl]-4,5-dihydro-oxazol-2-ylamine (described in WO 2008/098857) was used at a concentration equal to the calculated Kd value, that was usually around 0.7 nM, resulting in the binding of approximately 0.5% of the radioligand and a specific binding representing approximately 70% of the total binding. Nonspecific binding was defined as the amount of ^3[H]-(S)-4-[(ethyl-phenyl-amino)-methyl]-4,5-dihydro-oxazol-2-ylamine bound in the presence of 10 μM unlabeled ligand. All compounds were tested at a broad range of concentrations ([…]) in duplicates. The test compounds (20 […]μl/well) were transferred into a 96 deep well plate (TreffLab), and 180 μl of HEPES-NaOH (20 mM, pH 7.4) containing MgCl2 (10 mM) and CaCl2 (2 mM) (binding buffer), 300 μl of the radioligand ^3[H]-(S)-4-[(ethyl-phenyl-amino)-methyl]-4,5-dihydro-oxazol-2-ylamine at a concentration of 3.3×Kd in nM and 500 μl of the membranes (resuspended at […]) added. The 96 deep well plates were incubated for 1 hr at 4° C. Incubations were terminated by rapid filtration through Unifilter-96 plates (Packard Instrument Company) and glass filters GF/C (Perkin Elmer) presoaked for 1 hr in polyethylenimine (0.3%) and washed 3 times with 1 ml of cold binding buffer. […]

[2] = biological target: rat TAAR1 (Rattus norvegicus (Rat), UniProt Q923Y9); assay: Radioligand binding assay on rat TAAR1; settings: rat TAAR1 (second value of the cell); membranes of HEK-293 cells stably expressing rat TAAR1; read-out: Ki (μM) mouse/rat
Sequence of rat TAAR1 (Q923Y9 whole entry): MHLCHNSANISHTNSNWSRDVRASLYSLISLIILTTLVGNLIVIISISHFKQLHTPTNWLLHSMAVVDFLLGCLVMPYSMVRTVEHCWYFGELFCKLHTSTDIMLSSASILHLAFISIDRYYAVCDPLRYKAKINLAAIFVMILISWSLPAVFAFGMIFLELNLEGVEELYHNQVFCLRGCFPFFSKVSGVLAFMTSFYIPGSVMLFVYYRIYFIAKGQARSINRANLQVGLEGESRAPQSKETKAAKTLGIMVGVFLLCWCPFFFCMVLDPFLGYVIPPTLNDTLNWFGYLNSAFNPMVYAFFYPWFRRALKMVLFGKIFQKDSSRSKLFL
Description: as §1, §2, §3
Radioligand Binding Assay on Rat TAAR1
as §4
HEK-293 cells stably expressing rat TAAR1 were maintained at 37° C. and 5% CO2 in DMEM high glucose medium, containing fetal calf serum (10%, heat inactivated for 30 min at 56° C.), penicillin/streptomycin (1%), and 375 μg/ml geneticin (Gibco). Cells were released from culture flasks using trypsin/EDTA, harvested, washed twice with ice-cold PBS (without Ca^2+ and Mg^2+), pelleted at 1,000 rpm for 5 min at 4° C., frozen and stored at −80° C. Frozen pellets were suspended in 20 ml HEPES-NaOH (20 mM, pH 7.4) containing 10 mM EDTA and homogenized with a Polytron (PT 6000, Kinematica) at 14,000 rpm for 20 s. The homogenate was centrifuged at 48,000×g for 30 min at 4° C. Subsequently, the supernatant was removed and discarded, and the pellet resuspended in 20 ml HEPES-NaOH (20 mM, pH 7.4) containing 0.1 mM EDTA using the Polytron (20 s at 14,000 rpm). This procedure was repeated and the final pellet resuspended in HEPES-NaOH containing 0.1 mM EDTA and homogenized using the Polytron. Typically, aliquots of 2 ml membrane portions were stored at −80° C. With each new membrane batch the dissociation constant (Kd) was determined via a saturation curve. […] Nonspecific binding was defined as the amount of ^3[H]-(S)-4-[(ethyl-phenyl-amino)-methyl]-4,5-dihydro-oxazol-2-ylamine bound in the presence of 10 μM unlabeled ligand. All compounds were tested at a broad range of concentrations ([…]) in duplicates. The test compounds (20 […]μl/well) were transferred into a 96 deep well plate (TreffLab), and 180 μl of HEPES-NaOH (20 mM, pH 7.4) containing MgCl2 (10 mM) and CaCl2 (2 mM) (binding buffer), 300 μl of the radioligand ^3[H]-(S)-4-[(ethyl-phenyl-amino)-methyl]-4,5-dihydro-oxazol-2-ylamine at a concentration of 3.3×Kd in nM and 500 μl of the membranes (resuspended at 50 μg protein per ml) added. The 96 deep well plates were incubated for 1 hr at 4° C. Incubations were terminated by rapid filtration through Unifilter-96 plates (Packard Instrument Company) and glass filters GF/C (Perkin Elmer) presoaked for 1 hr in polyethylenimine (0.3%) and washed 3 times with 1 ml of cold binding buffer. After addition of 45 μl of Microscint 40 (PerkinElmer) the Unifilter-96 plate was sealed and after 1 hr the ratioactivity counted using a TopCount Microplate Scintillation Counter (Packard Instrument Company).

Sequence of mouse TAAR1 (Q923Y8 whole entry): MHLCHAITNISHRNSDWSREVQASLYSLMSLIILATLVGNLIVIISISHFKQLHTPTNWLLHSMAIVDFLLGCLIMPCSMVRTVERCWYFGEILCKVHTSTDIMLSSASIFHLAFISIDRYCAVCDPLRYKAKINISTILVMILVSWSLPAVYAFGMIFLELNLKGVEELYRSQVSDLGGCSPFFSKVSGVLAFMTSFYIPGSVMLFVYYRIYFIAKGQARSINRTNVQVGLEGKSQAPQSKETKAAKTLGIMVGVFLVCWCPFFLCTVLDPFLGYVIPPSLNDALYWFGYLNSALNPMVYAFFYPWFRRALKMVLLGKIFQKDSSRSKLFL

With `O=C(Nc1ccc(Cl)cc1)Nc1ccc(C23CCC(CO2)NC3)cc1` (racemic) [Example 66, (RS)-1-(4-Chlorophenyl)-3-[4-(5-oxa-2-azabicyclo[2.2.2]octan-4-yl)phenyl]urea] the Ki [1] was 0.005 µM and the Ki [2] was 0.0465 µM.

`O=C(Nc1ccc([C@@]23CN[C@@H](CO2)C3)cc1)c1ccnc(C(F)(F)F)c1` [Example 57] gave a Ki [1] of 0.0593 µM and a Ki [2] of 1.91 µM.

`O=C(Nc1ccc(Cl)cc1)Nc1ccc(C[C@]23CN[C@H](CO2)C3)cc1` [Example 1, 1-(4-Chlorophenyl)-3-[4-[[(1S,4S)-5-oxa-2-azabicyclo[2.2.1]heptan-4-yl]methyl]phenyl]urea] gave a Ki [1] of 1.82 µM and a Ki [2] of 1150 µM.

With `CC(C)c1cc(C(=O)Nc2ccc(C[C@@]34CN[C@@H](CO3)C4)cc2)[nH]n1` [Example 52, 3-Isopropyl-N-[4-[[(1R,4R)-5-oxa-2-azabicyclo[2.2.1]heptan-4-yl]methyl]phenyl]-1H-pyrazole-5-carboxamide] the Ki [1] was 0.295 µM and the Ki [2] was 1.16 µM.

Work on `O=C(Nc1ccc(C[C@@]23CN[C@@H](CO2)C3)cc1)c1ccc(OCC2CC2)cc1` [Example 45, 4-(Cyclopropylmethoxy)-N-[4-[[(1R,4R)-5-oxa-2-azabicyclo[2.2.1]heptan-4-yl]methyl]phenyl]benzamide] yielded a Ki [1] of 0.0061 µM and a Ki [2] of 0.0212 µM.

`FC(F)(F)c1ccc(Nc2ccc(C[C@@]34CN[C@@H](CO3)C4)cc2)nc1` [Example 63, N-[4-[[(1R,4R)-5-Oxa-2-azabicyclo[2.2.1]heptan-4-yl]methyl]phenyl]-5-(trifluoromethyl)pyridin-2-amine] gave a Ki [1] of 0.0107 µM and a Ki [2] of 0.141 µM.

`O=C(Nc1ccc(C[C@]23CN[C@H](CO2)C3)cc1)c1ccc(OCC(F)(F)F)nc1` [Example 27, N-[4-[[(1 S,4S)-5-Oxa-2-azabicyclo[2.2.1]heptan-4-yl]methyl]phenyl]-6-(2,2,2-trifluoroethoxy)pyridine-3-carboxamide] showed a Ki [1] of 0.0552 µM and a Ki [2] of 0.013 µM.

`CCc1ncc(C(=O)Nc2ccc(C[C@@]34CN[C@@H](CO3)C4)cc2)cn1` [Example 50, 2-Ethyl-N-[4-[[(1R,4R)-5-oxa-2-azabicyclo[2.2.1]heptan-4-yl]methyl]phenyl]pyrimidine-5-carboxamide] gave a Ki [1] of 0.226 µM and a Ki [2] of 1.24 µM.

For `CCCc1n[nH]c(C(=O)Nc2ccc(C[C@@]34CN[C@@H](CO3)C4)cc2)c1Cl` [Example 41, 4-Chloro-N-[4-[[(1R,4R)-5-oxa-2-azabicyclo[2.2.1]heptan-4-yl]methyl]phenyl]-3-propyl-1H-pyrazole-5-carboxamide], the Ki [1] was 0.0183 µM and the Ki [2] was 0.066 µM.

`O=C(Nc1ccc(C[C@]23CN[C@H](CO2)C3)cc1)c1cccc(Cl)c1` [Example 17, 3-Chloro-N-[4-[[(1S,4S)-5-oxa-2-azabicyclo[2.2.1]heptan-4-yl]methyl]phenyl]benzamide] gave a Ki [1] of 0.112 µM and a Ki [2] of 0.229 µM.

In the case of `CCOc1ccc(C(=O)Nc2ccc(C[C@]34CN[C@H](CO3)C4)cc2)cn1` [Example 26, 6-Ethoxy-N-[4-[[(1S,4S)-5-oxa-2-azabicyclo[2.2.1]heptan-4-yl]methyl]phenyl]pyridine-3-carboxamide], the Ki [1] is reported as 1.14 µM and the Ki [2] is reported as 0.441 µM.

With `O=C(Nc1ccc(Cl)cc1)Nc1ccc(C[C@@]23CN[C@@H](CO2)C3)cc1` [Example 23, 1-(4-Chlorophenyl)-3-[4-[[(1R,4R)-5-oxa-2-azabicyclo[2.2.1]heptan-4-yl]methyl]phenyl]urea] the Ki [1] was 0.0137 µM and the Ki [2] was 0.0375 µM.

With `O=C(Nc1ccc([C@@]23CN[C@@H](CO2)C3)cc1)c1ccc(Cl)cc1` [Example 54, 4-Chloro-N-[4-[(1R,4S)-5-oxa-2-azabicyclo[2.2.1]heptan-4-yl]phenyl]benzamide] the Ki [1] was 0.0054 µM and the Ki [2] was 0.97 µM.

`O=C(Nc1ccc(C23CCC(CO2)NC3)cc1)c1cnc(C2CC2)nc1` (racemic) [Example 14, (RS)-2-Cyclopropyl-N-[4-(5-oxa-2-azabicyclo[2.2.2]octan-4-yl)phenyl]pyrimidine-5-carboxamide] was tested, and the Ki [1] was 0.136 µM and the Ki [2] was greater than 10 µM.

With `FC(F)(F)c1ccc(Nc2ccc([C@]34CN[C@H](CO3)C4)cc2)nc1` [Example 61, N-[4-[(1 S,4R)-5-Oxa-2-azabicyclo[2.2.1]heptan-4-yl]phenyl]-5-(trifluoromethyl)pyridin-2-amine] the Ki [1] was 0.0146 µM and the Ki [2] was 0.0293 µM.

Work on `FC(F)(F)c1ccc(Nc2ccc(C[C@]34CN[C@H](CO3)C4)cc2)nc1` [Example 31, N-[4-[[(1S,4S)-5-Oxa-2-azabicyclo[2.2.1]heptan-4-yl]methyl]phenyl]-5-(trifluoromethyl)pyridin-2-amine] yielded a Ki [1] of 0.946 µM and a Ki [2] of 0.163 µM.

Compound `O=C(Nc1ccc(C23CCC(CO2)NC3)cc1)c1cccc(Cl)c1` (centres unmarked) [Example 6, 3-Chloro-N-[4-(5-oxa-2-azabicyclo[2.2.2]octan-4-yl)phenyl]benzamide] has a Ki [1] of 0.0044 µM and a Ki [2] of 0.797 µM.

`O=C(Nc1ccc(C[C@@]23CN[C@@H](CO2)C3)cc1)Nc1cccc(Cl)c1` [Example 24, 1-(3-Chlorophenyl)-3-[4-[[(1R,4R)-5-oxa-2-azabicyclo[2.2.1]heptan-4-yl]methyl]phenyl]urea] showed a Ki [1] of 0.0086 µM and a Ki [2] of 0.0614 µM.

In the case of `CC(C)c1cc(C(=O)Nc2ccc(C[C@]34CN[C@H](CO3)C4)cc2)[nH]n1` [Example 38, 3-Isopropyl-N-[4-[[(1S,4S)-5-oxa-2-azabicyclo[2.2.1]heptan-4-yl]methyl]phenyl]-1H-pyrazole-5-carboxamide], the Ki [1] is reported as 10.1 µM and the Ki [2] is reported as 0.441 µM.
